This is an account of results in PubChem BioAssay (NCI).

Molecules are shown by their SMILES.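 Results reflect a 48-hour exposure of cells in 96-well plates to compound at five concentrations. TGI: concentration producing complete growth inhibition.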

Test in all cases: NCI anticancer screen, dose series, 48 h
Assay [1] relates to TK-10 renal.
The subject of assay [2] is K-562 leukemia.
The subject of assay [3] is SR leukemia.
The subject of assay [4] is HOP-62 NSCLC.
Assay [5] concerns T-47D breast.
The test system of assay [6] is CAKI-1 renal.
Assay [7] concerns SK-MEL-5 melanoma.
In assay [8] the test system is SW-620 colon.
Assay [9] deals with KM12 colon.
Assay [10] relates to RPMI-8226 leukemia.

On to `CC1(C)Oc2ccc3c(=O)cc(-c4ccccc4)oc3c2C1C(=O)O` (stereo unspecified), for which the TGI in [1], in assay [2], in assay [3], in [4], in assay [5] and in [6] was over 100 µM throughout. Further, the TGI in assay [7] was over 100 µM.

In the case of `Cc1c2cccc-2ccc2c3ccccc3n(C(=O)c3ccc(Cl)cc3)c12`, the TGI in [1], in assay [8], in assay [2], in [3], in assay [4] and in [9] was over 100 µM each time. The TGI in [6], in assay [10] and in assay [7] was over 100 µM each time.

Take `N/C(=N\N=C\c1ncccc1O)NO`: the TGI in [8] was over 100 µM; in assay [2], over 60.7 µM; in assay [4], over 93 µM; in assay [9] it was over 100 µM; in assay [6], 96.8 µM; in [10], over 100 µM. This molecule also displayed a TGI in [7] of over 31.6 µM.

For `O=C(O)/C=C\C(=O)Nn1c(Cc2ccc(Cl)cc2)n[nH]c1=O`, the TGI in assay [1], in assay [2], in assay [3], in assay [4], in assay [5] and in [6] was over 100 µM each time. For the same molecule, the TGI in assay [7] was over 100 µM.

With `O=c1c2ccccc2nc2ccc3c(Cl)[nH][nH]c3c12`, the TGI in [1], in assay [8], in [2], in assay [3], in [4] and in assay [9] was over 100 µM throughout. Besides, the TGI was 85.3 µM in [6], over 100 µM in assay [10] and over 100 µM in [7].

With `Cc1c2ccncc2c(C)c2c1[nH]c1ccc(OCCN(C)C)cc12`, the TGI was determined as 0.406 µM in [8]; 5.21 µM in assay [2]; 1.95 µM in [4]; 0.499 µM in assay [9]; 1.89 µM in assay [6]; 0.135 µM in assay [10]. Besides, in assay [7], the TGI was determined as 3.4 µM.

Turning to `Cc1ccc(S(=O)(=O)NC(=O)C2=C3SCCN3C(=O)N(S(=O)(=O)c3ccc(C)cc3)C2c2ccccc2)cc1` (stereo unspecified), the TGI in [1], in [8], in assay [2], in assay [3], in [4] and in assay [5] was over 100 µM each time. Moreover, the TGI in [9] is 71.6 µM; in [6], over 100 µM; in assay [10] it was 92.3 µM.

On to `COc1nc(C#CC2CCCCC2)nc(OC)n1`, for which the TGI in assay [8] is 15.6 µM; in assay [2], 28.4 µM; in [3], over 100 µM; in [4], 18.4 µM; in [5] it was over 100 µM; in [9], 17.9 µM. Besides, the results for the TGI in assay [6], in [10] and in assay [7] were 12.5 µM, 6.53 µM and 15.3 µM, respectively.

As for `Cc1c([C@H](C)[C@@H]2NC[C@@H](C)C[C@H]2O)ccc2c1C[C@H]1[C@H]2CC=C2C[C@@H](O)CC[C@@]21C`, the TGI in assay [1] is 67.3 µM; in assay [8] it was over 100 µM; in assay [2], 40.6 µM; in assay [4] it was 96.4 µM; in assay [5], 53.2 µM; in assay [9], 37.2 µM. Moreover, the TGI in [6] was over 100 µM; in assay [10], 17.9 µM; in assay [7] it was 22.9 µM.

As to `O=c1[nH]c(=O)n(C2OC(CO)C(O)C2O)cc1OCCCc1ccccc1` (stereo unspecified), the TGI in assay [1], in assay [8], in assay [3], in assay [4], in [5] and in [9] was over 100 µM in each case. In addition, the TGI in [6] and in [7] was over 100 µM throughout.

On to `CC(=O)C(C)(C)CCC(C)(C)C(C)=O`, for which the TGI in assay [1], in [8], in [2], in assay [3], in assay [4] and in [5] was over 100 µM in each case. Moreover, the TGI in [9], in assay [6] and in [7] was over 100 µM each time.

Turning to `O=C1C2C=CC(n3[nH]c(=O)n(Cc4ccccc4)c3=O)CC2C(=O)N1c1ccc(Br)cc1` (stereo unspecified), the TGI in [1], in assay [8], in assay [2], in [3], in assay [4] and in [9] was over 100 µM in each case. The TGI in [6], in [10] and in assay [7] was over 100 µM in each case.

In the case of `CCN(CC)C(=O)Cn1c2c(c3ccccc31)CCCC2`, the TGI in assay [1], in assay [8], in [2], in assay [3], in assay [4] and in assay [6] was over 100 µM in each case. Besides, the TGI in assay [10] and in [7] was over 100 µM each time.

For `NC(=O)CN1C=CCC(C(N)=O)=C1`, the TGI in [8], in assay [2], in assay [4], in [5], in assay [9] and in assay [6] was over 100 µM in each case. The TGI in assay [10] and in assay [7] was over 100 µM in each case.

Turning to `CC(CNC(N)=O)NC(N)=O` (stereo unspecified), the TGI in assay [1], in [8], in [2], in assay [4], in assay [5] and in assay [9] was over 100 µM each time. Further, the TGI in assay [6], in assay [10] and in assay [7] was over 100 µM throughout.

On to `O=[N+]([O-])/C(C(Cl)=C(Cl)Cl)=C(/Nc1cccc2cccnc12)n1nnc2ccccc21`, for which the TGI in assay [8] was 31.3 µM; in assay [2], over 100 µM; in assay [4], 37.5 µM; in assay [5] it was 41 µM; in [9] it was 29.5 µM; in assay [6] it was 26.3 µM. In assay [10], this molecule returned a TGI of 83.6 µM.
